From patent US20250360160A1, “NEW MEDICAL USE OF TAFOXIPARIN” (DILAFOR AB, priority 2022, published 2025)

Test: anticoagulant activity
Conditions: definition of DF01

With tafoxiparin the anticoagulant activity was “essentially no anticoagulant activity”.
